Data set [1] has as its system DENV2 New Guinea C (DENV2-NGC). Kind of data set: Viral yield reduction assay, DENV2-NGC in Huh7 cells, titration by focus forming assay (FFA). The class given is cell-based, Dengue virus.
The subject of data set [2] is Huh7 cells. Kind of data set: CellTiter-Glo luminescent cell viability assay (cytotoxicity). Format: cell-based. The note with it: 20 μM, the highest concentration tested. As to the method:
As a positive control for cytotoxicity, some wells were supplemented with 0.1% saponin. The plates were incubated for 24 hours at 37° C., and the cell cytotoxicity was measured following the instructions of the CellTiter-Glo Luminescent cell viability assay (Promega G7570).
Background: Cellular ATP, detected with luciferase, serves as a proxy for viable cell number.

For data set [3], the system named is Kunjin virus. Kind of data set: Kunjin virus yield reduction in Huh7 cells, plaque assay in BHK21 cells. The class given is cell-based. The conditions noted are these: 2 μM.
In data set [4] the test system is recombinant viral particles (RVP) with dengue structural proteins and West Nile virus reporter RNA. Briefly: Single-cycle reporter viral particle (RVP) assay, Renilla luciferase, Huh7 cells. Format: cell-based. The note with it: entry and translation of subgenomic replicon RNA. On the technique in general: In antiviral work, replicon cells carry a viral genome segment that copies itself.

The test system of data set [5] is DENV2 replicon. The class given is cell-based, Dengue virus. The conditions noted are these: 2 μM added at 24 hours, read at 72 hours post-electroporation.
The test system of data set [6] is DENV2 virus-like particles (VLPs). Kind of data set: DENV virus-like particle (VLP) expression and secretion, Huh7 cells, Western blot. The note with it: 3 μM, supernatants 24 hours post-treatment. The class given is cell-based, Dengue virus. The method, then:
The plasmid used for virus-like particles (VLP) production was provided by Stephen Harrison. Briefly, the codon optimized sequence of DENV2-FGA/02 prM-E (Wang et al., PLoS ONE (2009) 4:e8325) was introduced in the pCDNA3.1 vector. To produce VLPs, Huh7 cells were transfected with pCDNA3.1-D2.VLP using Lipofectamine 2000 (Life Technologies 11668-019) according to the manufacturer's instructions. […] The supernatants were collected at 24 hours post-treatment and precipitated for 3 hours at 4° C. by the addition of 0.075% of PEG 8000. The VLPs were pelleted by centrifugation at 10,000 g for 15 min at 4° C. The pellet was suspended in 200 μl of 1×TNE (10 mM Tris-HCl pH 7.5, 2.5 mM EDTA, 50 mM NaCl), loaded over a sucrose cushion (800 μl of 12.5% sucrose in 1×TNE), and centrifuged at 100,000 g for 2 h at 4° C. The supernatants were discarded, and the purified VLPs were suspended in 50 μl of 1×TNE. 25 μl of purified VLPs were analyzed for DENV2 E protein expression by Western blotting using 4G2 antibody. An equal amount of purified VLPs was loaded on a SDS-PAGE and submitted to Coomassie staining to control for equal loading of the VLPs-enriched supernatants. Steady state expression of DENV2 E protein in the cell lysates was analyzed by Western blotting using 4G2 antibody.

The test system of data set [7] is DENV2-Fluc(WT) replicon RNA. Briefly: DENV2-Fluc(WT) replicon translation, luciferase, Huh7 cells. The note with it: 6 hours post-electroporation; QL compounds 2 μM, cycloheximide 30 μg/mL. Format: cell-based, Dengue virus.
In data set [8] the test system is DENV2-Fluc (GDV) replicon RNA. Briefly: DENV2-Fluc(GDV) mutant replicon translation, luciferase, Huh7 cells. Format: cell-based, Dengue virus. The conditions noted are these: 6 hours post-electroporation; QL compounds 2 μM, cycloheximide 30 μg/mL.
For data set [9], the system named is encephalomyocarditis virus (EMCV) IRES. Format: cell-based.
In data set [10] the test system is VSV. Format: cell-based, vesicular stomatitis virus.
In data set [11] the test system is VSV pseudotyped with rabies virus glycoprotein (RABV). The class given is cell-based, vesicular stomatitis virus.
Data set [12] concerns VSV pseudotyped with Ebola glycoprotein (EboV). The class given is cell-based, vesicular stomatitis virus.
Data set [13] relates to human cytomegalovirus (HCMV). Format: cell-based.
The test system of data set [14] is herpes simplex virus 1 (HSV-1). Format: cell-based.
In data set [15] the test system is poliovirus. The class given is cell-based.
Data set [16] concerns Japanese Encephalitis virus (JEV). Format: cell-based.
The subject of data set [17] is Junin virus. Format: cell-based.
In data set [18] the test system is influenza virus. Format: cell-based.
The test system of data set [19] is vaccinia virus. Format: cell-based.
Data set [20] relates to Ebola glycoprotein (EBOV). The class given is cell-based, Ebola virus.
The subject of data set [21] is Marburg virus (MARV). Format: cell-based.
Data set [22] deals with Junin virus (JUNV). Format: cell-based.
The subject of data set [23] is Lassa fever virus (LASV). The class given is cell-based.
The test system of data set [24] is Venezuelan equine encephalitis virus (VEEV). Format: cell-based.
Data set [25] relates to Rift Valley fever virus (RVFV). The class given is cell-based.
Data set [26] has as its system vesicular stomatitis virus (VSV). Format: cell-based.
Data set [27] relates to poliovirus Type 1 (PV1). The class given is cell-based.
In data set [28] the test system is DENV2 virus. Briefly: DENV2 viral production time course in Huh7 cells (FFU/ml, RTqPCR, Western blot). Format: cell-based, Dengue virus. The note with it: 4 μM. (In general: In qPCR the cycle at which signal appears reflects the starting amount.)
Data set [29] concerns Vero.
Data set [30] concerns BHK21.
Data set [31] deals with 3T3.
In data set [32] the test system is Hela.
For data set [33], the system named is 293.
For data set [34], the system named is DENV1 WP74. Briefly: Yield reduction assay, DENV1-WP74 in Huh7 cells, FFA in Vero cells. The note with it: Huh7 MOI 1, FFA in Vero cells.
Data set [35] concerns DENV3 THD3. Kind of data set: Yield reduction assay, DENV3-THD3 in Huh7 cells, FFA in Vero cells. The note with it: Huh7 MOI 1, FFA in Vero cells.
For data set [36], the system named is DENV4 TVP360. Briefly: Yield reduction assay, DENV4-TVP360 in Huh7 cells, FFA in Vero cells. The note with it: Huh7 MOI 1, FFA in Vero cells.
The test system of data set [37] is DENV2-NGC genomic RNA. Briefly: Time course of intracellular DENV genomic RNA by qRT-PCR and in situ hybridization. The conditions noted are these: 2 μM, MOI 1, normalized to GAPDH.
Data set [38] concerns the target DENV RNA-dependent polymerase (Dengue virus type 2, UniProt P14340). The conditions noted are these: Wu et al. 2002; cited from earlier work.
The subject of data set [39] is DENV2 virus. Briefly: QL-XII-47 biotin test, DENV2 in Huh7 cells, titration in FFU/ml. The class given is cell-based, Dengue virus. The note with it: treated for 24 or 48 h.

“Also recorded” adds a separate entry of the source. Read-outs that look alike come from different tables or passages of the source.

For orientation: EC90 means the point of the concentration-response curve where the effect stands at 90%. Higher therefore signals weaker potency. Consider `C=CC(=O)N1CCc2ccc(-n3c(=O)ccc4cnc5ccc(-c6cnn(C)c6)cc5c43)cc21` [QL-XII-47], for which the activity against strain result in data set [1] (DENV2 NGC, Huh7 MOI 1, FFA in Vero cells) was “potent activity”; in data set [34], “potent activity”; in data set [35], “potent activity”; in data set [36], “potent activity”. Further, in data set [1] (Dengue virus, DENV2, Huh-7), it took 0.4 µM to reach the 90% level (EC90). Further, the “decrease in DENV2 New Guinea C (DENV2-NGC) yield / drop in viral titer” value in [1] (at single-digit micromolar concentrations) is given as above 3 log10 unit. Also, the “inhibition of DENV after pretreatment of cells” value in data set [1] (cells pretreated for 6 hours and washed prior to infection) is listed as “potent inhibition”. Besides, in [1] (time-of-addition experiment), the “time of addition giving maximal anti-DENV effect” value was 0-3 hours post-infection. Besides, the cytotoxicity result is “no cytotoxicity; also recorded: not observed” in data set [2]; “not observed” in [29]; “not observed” in data set [30]; “not observed” in data set [31]; “single-digit micromolar cytotoxicity” in [32]; “single-digit micromolar cytotoxicity” in data set [33]. For the same compound, the “reduction in Kunjin virus yield” value in data set [3] is “greater than 10 fold”. In addition, the “inhibition in single-cycle reporter virus assay” value in data set [4] is “potent inhibitory activity”. For the same compound, the “activity on electroporated subgenomic reporter replicon” value in data set [5] is listed as “does not have activity”. The “yield of virus-like particles (VLPs)” value in data set [6] is reported as “did not inhibit”. Moreover, the “luciferase activity (translation of input RNA)” value (shortened to “luciferase activity”) in [7] and in [8] was “Reduced luciferase activity” each time. Besides, the “EMCV IRES-dependent translation” value in data set [9] is on record as “reduces translation; also recorded: inhibited”. Further, the inhibition of infection entry in [10], in data set [11] and in data set [12] was “inhibits infection” throughout. The “inhibition of reporter HCMV infection” value in [13] is on record as “inhibits”. The “inhibition of infection and plaque formation” value in data set [14] is given as “inhibits”. In data set [14], the plaques detected entry is recorded as “no plaques were detected”. Besides, in data set [15], the “inhibition of infection and viral gene expression” value was “inhibits”. Also, the “inhibition of cytopathic effects” value in data set [16] and in data set [17] was “modest inhibitor” each time. In addition, the activity against virus result in data set [18] and in data set [19] was “no activity” throughout. The inhibitory activity result in data set [20], in data set [21], in data set [22], in [23], in data set [24] and in [25] was “inhibitory activity” in each case. Besides, the “inhibition of VSV” value in [26] was “inhibited”. In addition, the “inhibition of PV1” value in data set [27] was “inhibited”. In addition, in data set [28], the “expression of DENV proteins NS3 and core (Western blot)” value is recorded as “reduced steady-state expression”. The “DENV2 viral production (FFU/ml, viral count)” value in data set [28] (after about 12 hours of infection) is listed as “inhibited”. Moreover, the “DENV genomic RNA copy number over time” value in data set [37] is listed as “relatively unchanged copy number”.
With `C=CC(=O)N1CCC[C@@H](n2nc(-c3ccc(Oc4ccccc4)cc3)c3c(N)ncnc32)C1` [PCI-32765, reference compound], in [1] (added 1 hour post-infection, MOI 1, FFA at 24 h post-infection), the “effect on DENV yield” value is recorded as “not inhibited; also recorded: no effect”.
With `C[C@@H]1C[C@@H]([C@H](O)CC2CC(=O)NC(=O)C2)C(=O)[C@@H](C)C1` [CHX, cycloheximide, reference compound], the “luciferase activity” value in data set [7] and in data set [8] was “Reduced luciferase activity” in each case.
In the case of `C=CC(=O)Nc1cc(-n2c(=O)ccc3cnc4ccc(-c5cnn(C)c5)cc4c32)ccc1C` [QL-XII-56], the “luciferase activity” value in data set [7] and in data set [8] was “Reduced luciferase activity” throughout. Also, the “EMCV IRES-dependent translation” value in data set [9] is “inhibited”. Also, the inhibitory activity result in [20], in data set [21], in data set [22], in data set [23], in [24] and in data set [25] was “inhibitory activity” throughout. Further, the “inhibition of VSV” value in data set [26] is listed as “inhibited”. Besides, in [27], the “inhibition of PV1” value is “inhibited”.
What is called EC50 is the concentration at which the effect is half-maximal. For the compound `C[C@@]1(O)[C@H](O)[C@@H](CO)O[C@H]1n1ccc2c(N)ncnc21` [Compound 7-DMA], in [38], the EC50 was 15 µM.
Turning to `CN(C/C=C/C(=O)N1CCc2ccc(-n3c(=O)ccc4cnc5ccc(-c6cnn(C)c6)cc5c43)cc21)CCNC(=O)NCCOCCOCCOCCNC(=O)CCCC1SCC2NC(=O)NC21` (stereo not drawn) [QL-XII-47-biotin], the “inhibitory activity against dengue virus” value in [39] was “significantly reduced inhibitory activity”.
Regarding `Nc1nc2c(ncn2COCCO)c(=O)[nH]1` [acyclovir, reference compound], the plaques detected result in [14] (8 μM) is on record as “no plaques were detected”.

(Values after US9879003B2, “Host targeted inhibitors of dengue virus and other viruses” (priority 2012, dated 2018).)
